The test system of one data set is tricyclic antibody. The data set is described as follows: Tricyclic ELISA (Neogen competitive ELISA test kit). The conditions noted are these: experiment C, 7-drug mixture; ELISA fingerprint compared with chromatographic fingerprints. The class given is binding. An excerpt:
(§1) ELISA test kits were purchased from Neogen Corporation, Lexington, Ky. […] Structural features that typically produce a positive response for each of these assays are described on FIG. 11.
(§2) ELISA is a method of analysis that relies on specific interactions between antibodies and antigens to detect a variety of substances. The assay (Neogen) operates on the basis of competition between the horseradish peroxidase (HRP) enzyme conjugate and the analyte in the sample for specific binding sites on the precoated antibody microplate. The test kits used for the experiment are 96-well plates precoated with a specific antibody. As described in FIG. 12, the sample or standard solution is first added to the precoated antibody microplate. Next, the diluted enzyme conjugate is added and the mixture is shaken and then incubated at room temperature for one hour. During incubation, competition for binding sites on the microplate is taking place. The plate is then washed removing all unbound material. The bound enzyme conjugate is detected by the addition of a tetramethylbenzidine (TMB) based substrate which generates an optimal color after 30 minutes. […] The extent of color development is inversely proportional to the amount of analyte in the sample or standard. […] Typically, the sensitivity of the selected ELISA assays ranges from ˜0.1 to 20-30 ng/mL depending on the substrate. […]

A short description of data set [1]: IAM chromatography, normalized capacity factor on IAM.SM C10/C3. Type of data set: physicochemical. Conditions: 15% acetonitrile + 85% 0.03 M NH4OAc buffer pH 7.4, 1 mL/min. An excerpt: (§3) The preferred, if not only surfaces capable of measuring membrane binding constants so far are from a group of immobilized artificial membranes (IAMs). IAMs consist of a monolayer of phospholipids covalently immobilized to a silica surface. Five types of IAM surfaces are typically used: phosphatidylcholine (PC), phosphatidylethanolamine (PE), phosphatidylserine (PS), sphingomyelin (SM), and cholesterol (CL). These IAM silica surfaces are used as the stationary phase in high performance liquid chromatography (HPLC). The IAM columns can be run in parallel with one single MS detection system (multi-column LC/MS) or successively using a one-column LC/MS instrument.
(§4) Dimensions of the columns: 3.0×0.46 cm.
(§5) Wavelength of the UV detector: 220 nm.
(§6) Mobile phase composition: 15% of acetonitrile+85% of 0.03 M NH4OAc buffer (pH 7.4).
(§7) All five compounds were chromatographed on ^esterIAM.PC^C10/C3, ^esterIAM.PE^C10/C3, ^esterIAM.PS^C10/C3, IAM.SM^C10/C3 using the experimental conditions described above. A representative set of normalized capacity factor values (αk′) of these drugs are presented in Table 6 [It should be noted that these values are very much dependent on packing material quality and density, as well as mobile phase composition (particularly the pH). Thus these values are not absolute and may vary from column to column within the same column type].

The nature of data set [2]: IAM chromatography, normalized capacity factor on esterIAM.PE C10/C3. The class given is physicochemical. Conditions: 15% acetonitrile + 85% 0.03 M NH4OAc buffer pH 7.4, 1 mL/min.
Description: as §3, §4, §5, §6, §7

Data set [3] can be described thus: IAM chromatography, normalized capacity factor on esterIAM.PS C10/C3. Type of data set: physicochemical. Conditions: 15% acetonitrile + 85% 0.03 M NH4OAc buffer pH 7.4, 1 mL/min.
Description: as §3, §4, §5, §6, §7

Data set [4] in a line: IAM chromatography, normalized capacity factor on esterIAM.PC C10/C3. The class given is physicochemical. Conditions: 15% acetonitrile + 85% 0.03 M NH4OAc buffer pH 7.4, 1 mL/min.
Description: as §3, §4, §5, §6, §7

In data set [5] the test system is antibody of the Benzodiazepines ELISA (specific for compounds belonging to the Benzodiazepine family). The data set is described as follows: Benzodiazepine ELISA (Neogen competitive ELISA test kit). Type of data set: binding. The conditions noted are these: experiment C, 7-drug mixture; ELISA fingerprint compared with chromatographic fingerprints.
Description: as §1, §2

Data set [6] deals with antibody of the Haloperidol ELISA (specific for Haloperidol). The data set is described as follows: Haloperidol ELISA (Neogen competitive ELISA test kit). Type of data set: binding.
Description: as §1, §2

Regarding `CN1CCCN=C1COC(=O)C(O)(c1ccccc1)C1CCCCC1` (stereo not drawn) [Oxyphencyclimine], the “Tricyclic ELISA activity assigned to compound” value in the data set with tricyclic antibody is “detected”.
In the case of `CCN(CC)C(=O)c1cccnc1` [Nikethamide], in data set [1], the “IAM.SM (αk′)” value is on record as 0.30. In addition, the “IAM.PE (αk′)” value in data set [2] is 1.55. The “IAM.PS (αk′)” value in data set [3] worked out at 0.61. Further, in data set [4], the “IAM.PC (αk′)” value is 0.33.
In the case of `CN1C(=O)CN=C(c2ccccc2)c2cc(Cl)ccc21` [Diazepam], the “Benzodiazepine ELISA activity assigned to compound” value in data set [5] was “detected by the Benzodiazepine ELISA assay”.
On to `Cc1cn([C@H]2C[C@H](N=[N+]=[N-])[C@@H](CO)O2)c(=O)[nH]c1=O` [AZT], for which the “IAM.SM (αk′)” value in data set [1] worked out at 0.26. Further, in data set [2], the “IAM.PE (αk′)” value was 0.76. Also, in data set [3], the “IAM.PS (αk′)” value was 0.36. For the same molecule, the “IAM.PC (αk′)” value in data set [4] is 0.36.
As to `CCn1cc(C(=O)O)c(=O)c2cc(F)c(N3CCNCC3)cc21` [Norfloxacin], the “IAM.SM (αk′)” value in data set [1] amounted to 2.09. Also, the “IAM.PE (αk′)” value in data set [2] was determined as 1.31. For the same molecule, in data set [3], the “IAM.PS (αk′)” value amounted to 8.09. The “IAM.PC (αk′)” value in data set [4] was determined as 0.64.
For `COc1cc(CCN)cc(OC)c1OC` [Mescaline] the same measures were 0.49, 1.95, 11.39 and 0.62.
The corresponding values for Olazoline are 0.49, 1.19, 4.72 and 0.52.
As to `O=C(CCCN1CCC(O)(c2ccc(Cl)cc2)CC1)c1ccc(F)cc1` [Haloperidol], the “Haloperidol ELISA activity assigned to compound” value is given as “activity should be assigned to Haloperidol” in data set [6] (experiment B, 70-drug mixture, activity profile compared with chromatographic fingerprints) and “only matches the chromatographic fingerprint of Haloperidol” in data set [6] (experiment C, 7-drug mixture, ELISA fingerprint compared with chromatographic fingerprints).

These data come from patent US6579720B1, “Method for activity profiling compound mixtures” (BDC Pharma LLC, priority 1999, dated 2003).
